In US20030199515A1, “Method for the preparation of crystalline tetrahydrobenzothiepines” (G.D. SEARLE, LLC, priority 2001, published 2003):

Assay: Water uptake experiments (Dynamic Vapor Sorption water sorption/desorption isotherms)
Assay type: physicochemical
Settings: for hygroscopicity (in words): crystalline form
Method: Water sorption experiments are performed on a Dynamic Vapor Sorption (DVS) apparatus (DVS-1000 manufactured by Surface Measurements Systems, Inc.). Experiments are performed at 25° C. by initially drying the material of interest (about 10 mg sample) from 30% relative humidity (RH) (ambient room condition) to about […] in a stepwise fashion (10% RH step) by purging with dry nitrogen until no further weight change was observed. The samples are then exposed to a stepwise (10% RH steps) increase in RH from about 0 to about 90% RH. Each successive step is initiated when the change in weight over time at the relative humidity was less than 0.0003% ((dm/dt)/m0×100, where m is mass in mg, m0 is initial mass, and t is time in minutes). The sample is then taken through the reverse of the stepwise % RH increase. The data are collected on a computer and analyzed using SMS′ proprietary MS-Excel macro interface software.

Row | hygroscopicity (in words) | hygroscopicity (in words) (listed as form II) | weight gain of a dry sample (% of its own weight) when equilibrated under humid air (dry sample, equilibrated under 80% relative humidity (RH) air at 25° C.) | SMILES
1 | essentially nonhygroscopic | essentially non-hygroscopic | less than 1% | CCCCC1(CCCC)CS(=O)(=O)c2ccc(N(C)C)cc2[C@@H](c2ccc(OCc3ccc(C[N+]45CCN(CC4)CC5)cc3)cc2)[C@H]1O.[Cl-] [Form II, (4R,5R)-1-((4-(4-(3,3-dibutyl-7-(dimethylamino)-2,3,4,5-tetrahydro-4-hydroxy-1,1-dioxido-1-benzithiepin-5-yl)phenoxy)methyl)phenyl)methyl-4-aza-1-azoniabicyclo[2.2.2]octane Chloride]
2 | hygroscopic | – | – | CCCCC1(CCCC)CS(=O)(=O)c2ccc(N(C)C)cc2[C@@H](c2ccc(OCc3ccc(C[N+]45CCN(CC4)CC5)cc3)cc2)[C@H]1O.[Cl-] [Form I, (4R,5R)-1-((4-(4-(3,3-dibutyl-7-(dimethylamino)-2,3,4,5-tetrahydro-4-hydroxy-1,1-dioxido-1-benzithiepin-5-yl)phenoxy)methyl)phenyl)methyl-4-aza-1-azoniabicyclo[2.2.2]octane Chloride]
